{"source": "patent US20240216547A1", "about": "“USE OF FLUORESCEIN DICARBONATE DERIVATIVES AS A CELL MARKER” (UNIVERSITE JEAN MONNET SAINT ETIENNE, priority 2021, published 2024)", "assay_type_in_all_cases": "cell-based", "key": {"[1]": {"system": "HCEC-B4G12 corneal endothelial cells", "experiment": "Impact of repeated cell marking on cell viability", "settings": "B4G12, 4 μM, daily marking 45 min, with or without PBS rinsing, D5", "experimental": "The experiment is carried out with HCEC-B4G12 corneal endothelial cells (CVCL_2065). The cells are thawed and cultured in their culture medium. The cells are trypsinized once a week before being seeded in wells of 24-well slides at a concentration of 1.10^5 cells/mL. The cells are then incubated for 5 days at 37° C., 5% CO2 until 90% confluence.\nThe different wells are stained daily with Calcein-AM (4 μM) or product F4267 (40 μM), according to the following conditions: marking for 45 minutes, then rinsing with PBS or marking for 45 minutes without rinsing. The marking and possibly rinsing step is repeated every day for 4 successive days, then after 2 days without marking, the marking is repeated again for 2 consecutive days.\nThe marking steps are carried out in duplicate. Afterwards, each marking, a well for each of the conditions is observed by epifluorescence microscopy (Olympus IX81 Microscope, FITC channel, ×4 objective, L: 25, Texp: 142.7 ms), while the second well (control) is kept in the darkness in order to evaluate the impact of fluorescence observation at the end of the study. On the last day of the study, the marking is carried out with calecin-AM (4 μM) in the presence of Hoescht ( 1/500) or the product F4267 (40 μM) in the presence of Hoescht ( 1/500), and the wells are imaged in MIA×4 (reconstruction of several fields to obtain a complete image of the well). […]"}, "[2]": {"experiment": "Cytotoxicity by LDH release (CyQUANT LDH Cytotoxicity Assay)", "settings": "human, HCE-2, 4 μM, 45 min contact, read-out: cytotoxicity (% of dead cells, LDH)", "experimental": "The cytotoxicity of a solution of compound 1 in Cremophor® EL [CAS 61791-12-6](molar ratio 1/1), designated under the reference F4267, compared to that of calcein-AM, was evaluated on the human corneal epithelium cell line immortalized by SV40, HCE-2 (ATCC CRL-11135) using two solutions of F4267 of concentrations [40 μM] and [1000 μM] or calcein-AM (FP-F19820, Interchim) [4 μM] diluted in optiMEM (11058021, Gibco, ThermoFisher) and deposited for 45 minutes on the cells (100 μL per well seeded 24 hours previously at 1.10^5 cells/mL [3788, Corning, surface: 0.32 cm^2]. After 45 minutes of contact with compound 1 or with calcein-AM, the cells were rinsed with their culture medium, then returned to culture in an oven with 5% CO2, at 37° C. Cytotoxicity was measured by dosing lactate dehydrogenases (LDH) released into the supernatant using the CyQUANT LDH Cytotoxicity Assay kit (C20301, ThermoFisher, see cytotoxicity test below) and expressed as % of dead cells using an internal standard. Cytotoxicity was evaluated 45 minutes (before rinsing), 24 h and 48 h after the start of incubation (3 wells per condition, n=1 experiments).\nLactate DeHydrogenases (LDH) are a family of ubiquitous cytosolic enzymes present in almost all cell types. Membrane damage causes a release of LDH into the external environment. There is a direct correlation between cellular cytotoxicity which causes membrane damage and the amount of LDH present in the extracellular environment. […]\nThe cytotoxicity test was carried out with tetrazolium salt (INT) which is converted into formazan. […] The concentration of formazan being proportional to the amount of LDH present in the medium, this was quantified by an absorbance reading at 555 nm, against a blank measurement at 650 nm to eliminate the parasitic absorbance of the medium. The percentage of dead cells is then calculated from the formula below, with the maximum LDH activity being that of a well from which all cells have been lysed, and the basal LDH activity, that of a non-treated well."}, "[3]": {"system": "corneal endothelium", "experiment": "Quality of cytoplasmic marking on corneal endothelium", "settings": "human corneal endothelium, 4 μM, 45 min", "experimental": "The quality of cytoplasmic marking by compound 1 (solution F4267) on corneal endothelium was compared to that of Calcein-AM by staining paired corneas. The endothelial surface of the corneas was incubated for 45 minutes either with the F4267 solution (40 μM on the left eye, LE) or with Calcein-AM (4 μM on the right eye, RE) following a validated staining protocol. (Invest Ophthalmol Vis Sci. 2011, 52 (8), 6018-6025, Pipparelli and al.) (n=2 pairs of corneas)."}, "[4]": {"system": "normal human fetal lung fibroblasts HEL299", "experiment": "Quality of cytoplasmic marking on adherent cells", "settings": "HEL299, 4 μM, FITC filter, macroscope", "experimental": "The quality of cytoplasmic marking by compound 1 on cells was evaluated on the adherent line of normal human fetal lung fibroblasts HEL299 [ATCC CCL-137], because they form a cellular monolayer (a single thickness facilitating the evaluation of cellular morphology and enumeration). Cells were seeded at 1.10^5 cells/mL 72 h before marking, then marked with the solution of compound 1 designated by the reference F4267 at [4 μM] and [40 μM] or with a solution of Calcein-AM [4 μM], then observed in a sterile Petri dish under the FITC filter of a macroscope (macro-zoom microscope, MVX10, Olympus, Tokyo, Japan) (2 wells per condition, n=1 experiments)."}}, "data": [{"compound": "CC(=O)OCOC(=O)CN(CC(=O)OCOC(C)=O)Cc1c(OC(C)=O)ccc2c1Oc1c(ccc(OC(C)=O)c1CN(CC(=O)OCOC(C)=O)CC(=O)OCOC(C)=O)C21OC(=O)c2ccccc21", "note": "[Calcein-AM]", "values": [{"measurement": "cell layer after repeated marking", "setting": "[1]", "value": "less dense"}, {"measurement": "cell layer after repeated marking", "setting": "[1]; listed as calcein-AM", "value": "absence of cell layer"}, {"measurement": "cytotoxicity at 45 min, 4 µM", "setting": "[2]; measured at 45 min", "value": "0.6 ± 0.5", "unit": "%"}, {"measurement": "cytotoxicity at 24 h, 4 µM", "setting": "[2]; measured at 24 h", "value": "26.4 ± 14.1", "unit": "%"}, {"measurement": "cytotoxicity at 48 h, 4 µM", "setting": "[2]; measured at 48 h", "value": "18.8 ± 11.1", "unit": "%"}, {"measurement": "marking differentiating dead cells from living cells", "setting": "[3]", "value": "marking differentiating dead cells from living cells"}, {"measurement": "quality of cytoplasmic marking", "setting": "[4]", "value": "visualize the cell cytoplasms in a similar way"}]}]}
